Results from ChEMBL document CHEMBL1149973, “Inhibitory stereochemistry of N-chloroacetyl-N-hydroxyleucine methyl ester for thermolysin” (Bioorg Med Chem Lett, 1996).
pKi: −log10 of the molar value.

Tests used:
Thermolysin = target: T1, Thermolysin (Bacillus thermoproteolyticus, UniProt P00800); experiment: Inhibitory activity against thermolysin expressed as Ki
T1 sequence (P00800 whole entry): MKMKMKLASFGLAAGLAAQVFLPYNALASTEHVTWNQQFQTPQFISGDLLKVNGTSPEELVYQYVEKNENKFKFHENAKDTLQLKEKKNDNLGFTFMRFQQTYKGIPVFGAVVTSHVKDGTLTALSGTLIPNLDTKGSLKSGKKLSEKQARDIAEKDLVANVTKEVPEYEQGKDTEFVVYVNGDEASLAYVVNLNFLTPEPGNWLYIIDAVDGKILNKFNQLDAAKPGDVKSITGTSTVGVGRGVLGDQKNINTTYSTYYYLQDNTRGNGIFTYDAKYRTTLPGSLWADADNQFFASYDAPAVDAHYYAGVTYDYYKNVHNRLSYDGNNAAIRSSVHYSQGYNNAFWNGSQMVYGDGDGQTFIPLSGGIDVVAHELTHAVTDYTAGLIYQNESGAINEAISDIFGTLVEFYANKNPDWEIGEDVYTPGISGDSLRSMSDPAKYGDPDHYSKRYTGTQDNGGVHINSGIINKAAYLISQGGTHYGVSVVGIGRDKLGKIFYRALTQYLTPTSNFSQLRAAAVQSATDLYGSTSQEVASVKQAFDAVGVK

[1] = target: T2, Thermolysin (Bacillus thermoproteolyticus) (UniProt P00800); experiment: Inhibitory activity against thermolysin expressed as kinact
T2 sequence (whole entry): T1 sequence (P00800 whole entry)

Row | SMILES | pKi (Thermolysin) | K inact [1]
1 | COC(=O)C(CC(C)C)N(O)C(=O)CCl (centres undefined) | 2.12 | 0.0075 s⁻¹
2 | COC(=O)[C@H](CC(C)C)N(O)C(=O)CCl | 2.35 | 0.009 s⁻¹
